Measurements: US20220265629A1, “TREATMENT OF SYSTOLIC DYSFUNCTION AND HEART FAILURE WITH REDUCED EJECTION FRACTION WITH THE COMPOUND (R)-4-(1-((3-(DIFLUOROMETHYL)-1-METHYL-1H-PYRAZOL-4-YL)SULFONYL)-1-FLUOROETHYL)-N-(ISOXAZOL-3-YL)PIPERIDINE-1-CARBOXAMIDE” (MyoKardia, Inc., priority 2019, published 2022)
Read-outs that look alike come from different tables or passages of the source.

Test: Single ascending oral dose study in healthy volunteers: plasma pharmacokinetics
Format: in vivo, human
Conditions: for Plasma concentration, Mean / concentration at 6 h: 6 Hours Postdose; for concentration at 6 h / concentration at 12 h / concentration at 24 h / concentration at 48 h / concentration at 72 h / AUC(0-t) / AUC(0-inf) / Cmax / half-life / MRT / Tmax / Vd/F: human, plasma, oral; for concentration at 12 h: 12 Hours Postdose; for concentration at 24 h: 24 Hours Postdose; for concentration at 48 h: 48 Hours Postdose; for concentration at 72 h: 72 Hours Postdose
Text: This example describes the first-in-human study of Compound I. Based on its mechanism of action, Compound I may offer a targeted therapy for patients with DCM caused by genetic or nongenetic mechanisms. The study was a randomized, double-blind, placebo-controlled, sequential group, single-ascending (oral) close study in healthy subjects aged 18-55 years. Eight dosing cohorts, each comprising eight healthy subjects, were enrolled. Within each cohort, subjects were randomized 6:2 to Compound I:placebo.
Subjects were resident at the clinical site for up to 5 days and 4 nights, from Day −1 (the day before dosing) to Day 4, and received a single dose of Compound I or placebo on Day 1. ECG telemetry was initiated 1 hour preclose and continued through 48 hours postclose (Day 3). Any subject with a preclose resting HR≥80 beats per minute was considered ineligible and not treated. […] Subjects returned for a safety follow-up visit 7 days (±1 day) after dosing.
All randomized study subjects received either Compound I or matching placebo as a single oral dose after a fasting period of at least 6 hours. Compound I drug substance is a crystalline, free-base, synthetic molecule with a molecular weight of 435.4 g/mol.
Compound I was provided as a powder for oral suspension. Placebo was provided as calcium carbonate powder. Both treatments were closed orally as a suspension. The suspension was made using Ora-Plus® suspending vehicle (Perrigo) and a cherry syrup flavoring vehicle (Humco), mixed 50% to 50%. The suspension was followed by approximately 100 mL water. The suspension was made up within 14 days from the time in which it was closed which was consistent with the stability data on the suspension. The suspension was made up so the volume administered to the subjects who received Compound I was the same at 20 mL.
Each subject received a close according to the cohort in which they were enrolled. Cohorts were enrolled sequentially, with each cohort receiving an escalated dose of Compound I. The closes administered were 3 mg, 10 mg, 25 mg, 50 mg, 100 mg, 175 mg, 350 mg, and 525 mg, respectively.
The concentrations of Compound I in human plasma and urine were quantitated by high performance liquid chromatography with tandem mass spectrometric detection (LC MS/MS) (Biological sample analysis study report Alturas AD17-726). Plasma samples were extracted by protein precipitation with acetonitrile containing internal standard MYK-5654. The calibration curves were linear over concentration range of 0.500 to 1000 ng/mL with a lower limit of quantification (LLOQ) of 0.500 ng/mL.
The PK Population included all subjects who received Compound I. Blood samples were collected for PK assessments. The actual timing of the samples may have been modified and/or up to an additional 2 samples may have been requested by the SRC after review of the data from previous cohorts. It was important that PK sampling occurred as closely as possible to the scheduled time (±10%). Both blood and urine samples were used for PK assessments.
In addition, for subjects who received placebo, a single plasma sample near the predicted tmax of Compound I was evaluated to confirm the lack of circulating Compound I. Plasma concentration data for Compound I was summarized using descriptive statistics, including mean, standard deviation (SD), median, minimum, and maximum values, and percent coefficient of variation. Other PK parameters included (but were not limited to) Cmax, tmax, AUC, t1/2, and MRT. Additionally, the apparent terminal-phase terminal half-life was calculated. The close proportionality of AUC and Cmax was explored.

[1] = 3 mg, 3 mg, read-out: Plasma concentration, Geometric Mean
[2] = 3 mg, 3 mg, read-out: Plasma concentration, Mean
[3] = 3 mg, 3 mg, read-out: Plasma concentration, Median
[4] = 10 mg, 10 mg, read-out: Plasma concentration, Geometric Mean
[5] = 10 mg, 10 mg, read-out: Plasma concentration, Mean
[6] = 10 mg, 10 mg, read-out: Plasma concentration, Median

Cn1cc(S(=O)(=O)[C@@](C)(F)C2CCN(C(=O)Nc3ccon3)CC2)c(C(F)F)n1 [Compound I, (R)-4-(1-((3-(difluoromethyl)-1-methyl-1H-pyrazol-4-yl)sulfonyl)-1-fluoroethyl)-N-(isoxazol-3-yl)piperidine-1-carboxamide]
CL/F, Geometric Mean (3 mg): 4.15 L/h
CL/F, Mean (3 mg): 4.26 L/h
CL/F, Median (3 mg): 4.22 L/h
Extrapolation, Geometric Mean (3 mg): 2.71%
Extrapolation, Mean (3 mg): 2.78%
Extrapolation, Median (3 mg): 2.82%
CL/F, Geometric Mean (10 mg): 2.99 L/h
CL/F, Mean (10 mg): 3.06 L/h
CL/F, Median (10 mg): 2.88 L/h
Extrapolation, Geometric Mean (10 mg): 1.59%
Extrapolation, Mean (10 mg): 1.90%
Extrapolation, Median (10 mg): 2.24%
CL/F, Geometric Mean (25 mg): 3.55 L/h
CL/F, Mean (25 mg): 3.69 L/h
CL/F, Median (25 mg): 3.32 L/h
Extrapolation, Geometric Mean (25 mg): 1.45%
Extrapolation, Mean (25 mg): 1.72%
Extrapolation, Median (25 mg): 1.92%
CL/F, Geometric Mean (50 mg): 4.47 L/h
CL/F, Mean (50 mg): 4.53 L/h
CL/F, Median (50 mg): 4.46 L/h
Extrapolation, Geometric Mean (50 mg): 0.46%
Extrapolation, Mean (50 mg): 0.91%
Extrapolation, Median (50 mg): 0.46%
CL/F, Geometric Mean (100 mg): 4.69 L/h
CL/F, Mean (100 mg): 4.76 L/h
CL/F, Median (100 mg): 5.33 L/h
Extrapolation, Geometric Mean (100 mg): 0.36%
Extrapolation, Mean (100 mg): 5.48%
Extrapolation, Median (100 mg): 0.14%
CL/F, Geometric Mean (175 mg): 4.57 L/h
CL/F, Mean (175 mg): 4.66 L/h
CL/F, Median (175 mg): 4.45 L/h
Extrapolation, Geometric Mean (175 mg): 0.14%
Extrapolation, Mean (175 mg): 0.17%
Extrapolation, Median (175 mg): 0.16%
CL/F, Geometric Mean (350 mg): 4.75 L/h
CL/F, Mean (350 mg): 4.95 L/h
CL/F, Median (350 mg): 4.75 L/h
Extrapolation, Geometric Mean (350 mg): 0.37%
Extrapolation, Mean (350 mg): 0.60%
Extrapolation, Median (350 mg): 0.43%
AUC0-∞, Mean (350 mg + 525 mg): 74358.88 ng·h/mL
CL/F, Geometric Mean (350 mg + 525 mg): 6.04 L/h
CL/F, Mean (350 mg + 525 mg): 6.51 L/h
CL/F, Median (350 mg + 525 mg): 6.10 L/h
Extrapolation, Geometric Mean (350 mg + 525 mg): 0.29%
Extrapolation, Mean (350 mg + 525 mg): 0.59%
Extrapolation, Median (350 mg + 525 mg): 0.32%
Tmax, Mean (350 mg + 525 mg): 4.96 h
CL/F, Geometric Mean (525 mg): 7.66 L/h
CL/F, Mean (525 mg): 8.07 L/h
CL/F, Median (525 mg): 7.64 L/h
Extrapolation, Geometric Mean (525 mg): 0.22%
Extrapolation, Mean (525 mg): 0.59%
Extrapolation, Median (525 mg): 0.23%
Plasma concentration, Mean (350 mg): 2660.000 ng/mL
Plasma concentration, Mean (350 mg + 525 mg): 2437.500 ng/mL
Plasma concentration, Mean (525 mg): 2215.000 ng/mL
dose proportionality, power model slope (all dose groups, 95% CI 0.8358-0.9417): 0.8888
concentration at 6 h [1]: 35.2 ng/mL
concentration at 6 h [2]: 35.8 ng/mL
concentration at 6 h [3]: 33.5 ng/mL
concentration at 12 h [1]: 21.5 ng/mL
concentration at 12 h [2]: 21.9 ng/mL
concentration at 12 h [3]: 21.7 ng/mL
concentration at 24 h [1]: 11 ng/mL
concentration at 24 h [2]: 11.3 ng/mL
concentration at 24 h [3]: 10.8 ng/mL
concentration at 48 h [1]: 2.29 ng/mL
concentration at 48 h [2]: 2.7 ng/mL
concentration at 48 h [3]: 2.34 ng/mL
concentration at 72 h [2]: 0.586 ng/mL
concentration at 72 h [3]: 0.449 ng/mL
AUC(0-t) (3 mg, read-out: AUC0-24, Geometric Mean): 514 ng·h/mL
AUC(0-t) (3 mg, read-out: AUC0-24, Mean): 521 ng·h/mL
AUC(0-t) (3 mg, read-out: AUC0-24, Median): 504 ng·h/mL
AUC(0-t) (3 mg, read-out: AUC0-48, Geometric Mean): 676 ng·h/mL
AUC(0-t) (3 mg, read-out: AUC0-48, Mean): 689 ng·h/mL
AUC(0-t) (3 mg, read-out: AUC0-48, Median): 678 ng·h/mL
AUC(0-t) (3 mg, read-out: AUC0-last, Geometric Mean): 702 ng·h/mL
AUC(0-t) (3 mg, read-out: AUC0-last, Mean): 721 ng·h/mL
AUC(0-t) (3 mg, read-out: AUC0-last, Median): 713 ng·h/mL
AUC(0-inf) (3 mg, read-out: AUC0-∞, Geometric Mean): 722 ng·h/mL
AUC(0-inf) (3 mg, read-out: AUC0-∞, Mean): 741 ng·h/mL
AUC(0-inf) (3 mg, read-out: AUC0-∞, Median): 730 ng·h/mL
Cmax (3 mg, read-out: Cmax, Geometric Mean): 37.6 ng/mL
Cmax (3 mg, read-out: Cmax, Mean): 38.2 ng/mL
Cmax (3 mg, read-out: Cmax, Median): 36.5 ng/mL
half-life (3 mg, read-out: Half-Life Lambda Z, Geometric Mean (converted)): 11.1 h
half-life (3 mg, read-out: Half-Life Lambda Z, Mean (converted)): 11.3 h
half-life (3 mg, read-out: Half-Life Lambda Z, Median (converted)): 11.2 h
MRT (3 mg, read-out: Mean Residence Time, Geometric Mean): 17.3 h
MRT (3 mg, read-out: Mean Residence Time, Mean): 17.5 h
MRT (3 mg, read-out: Mean Residence Time, Median): 16.8 h
Tmax (3 mg, read-out: Tmax, Geometric Mean): 4.33 h
Tmax (3 mg, read-out: Tmax, Mean): 4.46 h
Tmax (3 mg, read-out: Tmax, Median): 4 h
Vd/F (3 mg, read-out: Vz/F, Geometric Mean): 66.5 L
Vd/F (3 mg, read-out: Vz/F, Mean): 66.9 L
Vd/F (3 mg, read-out: Vz/F, Median): 65.4 L
concentration at 6 h [4]: 129 ng/mL
concentration at 6 h [5]: 131 ng/mL
concentration at 6 h [6]: 137 ng/mL
concentration at 12 h [4]: 92.8 ng/mL
concentration at 12 h [5]: 94.2 ng/mL
concentration at 12 h [6]: 97.8 ng/mL
concentration at 24 h [4]: 56.3 ng/mL
concentration at 24 h [5]: 57.8 ng/mL
concentration at 24 h [6]: 61.5 ng/mL
concentration at 48 h [4]: 15.8 ng/mL
concentration at 48 h [5]: 16.4 ng/mL
